Test results: ChEMBL document CHEMBL3217543, “Synthesis and biological activity evaluation of N-protected isatin derivatives as inhibitors of ICAM-1 expression on human endothelial cells” (Medchemcomm, 2011)

Tests used:
[1] = system: HUVEC; test: Antiinflammatory activity in HUVEC assessed as inhibition of TNFalpha-induced ICAM1 expression pretreated for 2 hrs followed by TNFalpha challenge measured after 16 hrs by cell-ELISA; format: functional, cell-based; details: Homo sapiens
[2] = system: HUVEC; test: Antiinflammatory activity in HUVEC assessed as inhibition of TNFalpha-induced ICAM1 expression at 100 uM pretreated for 2 hrs followed by TNFalpha challenge measured after 16 hrs by cell-ELISA; format: functional; details: Homo sapiens
[3] = Cytotoxicity against HUVEC assessed as cell viability at 100 uM after 24 hrs by MTT assay; format: cell-based; details: human, HUVEC cells; read-out: Activity
[4] = system: HUVEC; test: Antiinflammatory activity in HUVEC assessed as inhibition of TNFalpha-induced ICAM1 expression preincubated for 0.5 to 6 hrs followed by TNFalpha challenge measured after 4 hrs by immunostaining assay; format: functional, cell-based; details: Homo sapiens
[5] = system: HUVEC; test: Antiinflammatory activity in HUVEC assessed as inhibition of TNFalpha-induced ICAM1 expression at 100 uM pre-treated before TNFalpha addition by cell-ELISA; format: functional, cell-based; details: Homo sapiens, TDE = time-dependent effect
[6] = system: HUVEC; test: Antiinflammatory activity in HUVEC assessed as inhibition of TNFalpha-induced ICAM1 expression measured after 6 hrs by FACS flow cytometry; format: functional, cell-based; details: Homo sapiens
[7] = system: HUVEC; test: Antiinflammatory activity in HUVEC assessed as inhibition of LPS-induced ICAM1 expression by cell-ELISA; format: functional, cell-based; details: Homo sapiens

Structure (SMILES) | IC50 [1] | inhibition at 100 µM [2] | viability at 24 h, 100 µM [3] | IC50 [4] | inhibition [5] | inhibition [2] | IC50 [6] | IC50 [7]
CCOC(=O)/C=C1/C(=O)Nc2ccc(F)cc21 | > 100 µM | 31% | 95% | – | – | – | – | –
CCOC(=O)/C=C1/C(=O)N(CC(=O)OCC)c2ccccc21 | 55 µM | 74% | 98% | – | – | – | – | –
CCOC(=O)/C=C1/C(=O)N(CC(=O)OCC)c2ccc(F)cc21 | 40 µM | 63% | 97% | – | – | – | – | –
CCOC(=O)/C=C1/C(=O)N(CC(=O)OC)c2ccc(F)cc21 | 75 µM | 52% | 96% | – | – | – | – | –
CCOC(=O)/C=C1/C(=O)N(C(=O)OC)c2ccc(Br)cc21 | 25 µM | 88% | 98% | – | – | – | – | –
CCOC(=O)/C=C1/C(=O)N(C(=O)OC)c2ccc(F)cc21 | 70 µM | 61% | 97% | – | – | – | – | –
CCOC(=O)/C=C1/C(=O)Nc2ccc(Cl)cc21 | 100 µM | 56% | 96% | – | – | – | – | –
CCOC(=O)/C=C1/C(=O)N(C(=O)OCC)c2ccc(Cl)cc21 | 30 µM | 83% | 97% | – | – | – | – | –
CCOC(=O)/C=C1/C(=O)Nc2ccc(Br)cc21 | 100 µM | 58% | 97% | – | – | – | – | –
CC(=O)N[C@@H](CS)C(=O)O [ACETYLCYSTEINE] | – | – | – | 10000 µM | – | – | – | –
CCOC(=O)/C=C1/C(=O)N(CC(=O)OCC)c2ccc(Cl)cc21 | 25 µM | 74% | 96% | – | – | – | – | –
CCOC(=O)/C=C1/C(=O)N(C(=O)OC)c2ccccc21 | 78 µM | 57% | 98% | – | – | – | – | –
CCOC(=O)/C=C1/C(=O)N(CC(=O)OC)c2ccc(Br)cc21 | 25 µM | 81% | 99% | – | – | – | – | –
CCOC(=O)/C=C1/C(=O)N(CC(=O)OCC)c2ccc(Br)cc21 | 10 µM | 93% | 97% | – | tde | Dose-dependent effect | – | –
CCOC(=O)/C=C1/C(=O)N(C(=O)OCC)c2ccccc21 | 50 µM | 66% | 95% | – | – | – | – | –
CC(=O)Oc1ccccc1C(=O)O [ASPIRIN] | – | – | – | – | – | – | 5000 µM | –
CCOC(=O)/C=C1/C(=O)N(CC(=O)OC)c2ccc(Cl)cc21 | 40 µM | 67% | 97% | – | – | – | – | –
CCOC(=O)/C=C1/C(=O)Nc2ccccc21 | > 100 µM | 40% | 96% | – | – | – | – | –
CCOC(=O)/C=C1/C(=O)N(C(=O)OCC)c2ccc(F)cc21 | 53 µM | 72% | 96% | – | – | – | – | –
CCOC(=O)/C=C1/C(=O)N(C(=O)OCC)c2ccc(Br)cc21 | 15 µM | 91% | 98% | – | – | – | – | –
CCOC(=O)/C=C1/C(=O)N(C(=O)OC)c2ccc(Cl)cc21 | 40 µM | 77% | 96% | – | – | – | – | –
O=C(O)Cc1ccccc1Nc1c(Cl)cccc1Cl [DICLOFENAC] | – | – | – | – | – | – | – | 750 µM
CCOC(=O)/C=C1/C(=O)N(CC(=O)OC)c2ccccc21 | 70 µM | 58% | 97% | – | – | – | – | –
